The results in this text go back to patent publication US9593123B2, “Triazolo[4,5-D]pyrimidine derivatives” (Hoffmann-La Roche Inc., priority 2013, dated 2017).

The target in experiment [1] is human CB1 receptor (Homo sapiens (Human), UniProt P21554). Kind of experiment: cAMP assay, CHO cells expressing human CB1 receptors. The settings on record: functional cAMP assay, read-out: CB1 hcAMP EC50. In kind it is cell-based. The protocol: (§1) CHO cells expressing human CB1 or CB2 receptors are seeded 17-24 hours prior to the experiment 50.000 cells per well in a black 96 well plate with flat clear bottom (Corning Costar #3904) in DMEM (Invitrogen No. 31331), 1×HT supplement, with 10% fetal calf serum and incubated at 5% CO2 and 37° C. in a humidified incubator. The growth medium was exchanged with Krebs Ringer Bicarbonate buffer with 1 mM IBMX and incubated at 30° C. for 30 min. Compounds were added to a final assay volume of 100 μl and incubated for 30 min at 30° C. Using the cAMP-Nano-TRF detection kit the assay (Roche Diagnostics) was stopped by the addition of 50 μl lysis reagent (Tris, NaCl, 1.5% Triton X100, 2.5% NP40, 10% NaN3) and 50 μl detection solutions (20 μM mAb Alexa700-cAMP 1:1, and 48 μM Ruthenium-2-AHA-cAMP) and shaken for 2 h at room temperature. The time-resolved energy transfer is measured by a TRF reader (Evotec Technologies GmbH), equipped with a ND:YAG laser as excitation source. The plate is measured twice with the excitation at 355 nm and at the emission with a delay of 100 ns and a gate of 100 ns, total exposure time 10 s at 730 (bandwidth 30 nm) or 645 nm (bandwidth 75 nm), respectively. The FRET signal is calculated as follows: FRET=T730-Alexa730-P(T645-B645) with P=Ru730-B730/Ru645-B645, where T730 is the test well measured at 730 nM, T645 is the test well measured at 645 nm, B730 and B645 are the buffer controls at 730 nm and 645 nm, respectively. cAMP content is determined from the function of a standard curve spanning from 10 μM to 0.13 nM cAMP.
(§2) EC50 values were determined using Activity Base analysis (ID Business Solution, Limited). The EC50 values for a wide range of cannabinoid agonists generated from this assay were in agreement with the values published in the scientific literature.

The target in experiment [2] is human CB2 receptor (Homo sapiens (Human), UniProt P34972). Kind of experiment: cAMP assay, CHO cells expressing human CB2 receptors. In kind it is cell-based. The settings on record: functional cAMP assay, read-out: CB2 hcAMP EC50. The protocol:
as §1, §2
On the technique in general: Changes in cAMP serve as a functional read-out for many G protein-coupled receptors.

A value given as a limit tells only on which side of the number the result lay.

Usually EC50 stands for the concentration giving half of the maximal effect.

Chain of human CB1 receptor (P21554 whole entry): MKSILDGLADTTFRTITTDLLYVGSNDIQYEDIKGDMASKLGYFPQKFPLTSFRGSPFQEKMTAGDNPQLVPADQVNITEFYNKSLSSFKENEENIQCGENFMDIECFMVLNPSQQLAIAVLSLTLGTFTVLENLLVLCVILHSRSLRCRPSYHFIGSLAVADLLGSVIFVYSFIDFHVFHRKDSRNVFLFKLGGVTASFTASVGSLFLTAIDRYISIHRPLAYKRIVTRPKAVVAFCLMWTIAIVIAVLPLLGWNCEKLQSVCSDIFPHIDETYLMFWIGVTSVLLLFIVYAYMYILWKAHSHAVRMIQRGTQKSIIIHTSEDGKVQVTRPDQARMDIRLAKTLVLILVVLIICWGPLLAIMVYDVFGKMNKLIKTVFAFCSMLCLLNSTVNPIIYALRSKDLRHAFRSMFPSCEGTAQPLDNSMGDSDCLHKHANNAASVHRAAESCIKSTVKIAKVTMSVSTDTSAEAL
Chain of human CB2 receptor (P34972 whole entry): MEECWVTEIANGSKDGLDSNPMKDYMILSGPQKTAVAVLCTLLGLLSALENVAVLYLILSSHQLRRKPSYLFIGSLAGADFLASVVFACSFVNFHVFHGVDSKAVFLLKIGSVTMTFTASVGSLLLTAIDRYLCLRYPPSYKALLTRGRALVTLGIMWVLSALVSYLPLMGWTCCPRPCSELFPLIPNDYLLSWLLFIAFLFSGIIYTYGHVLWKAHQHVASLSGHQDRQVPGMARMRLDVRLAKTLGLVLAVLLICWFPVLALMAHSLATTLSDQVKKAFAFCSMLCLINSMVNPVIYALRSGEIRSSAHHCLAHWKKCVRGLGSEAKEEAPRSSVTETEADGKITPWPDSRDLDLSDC

As for `CC(=O)N[C@H]1CCN(c2nc(OCC(C)(C)C)nc3c2nnn3Cc2nonc2C)C1` [Example 79, N-[(3S)-1-[5-(2,2-Dimethylpropoxy)-3-[(4-methyl-1,2,5-oxadiazol-3-yl)methyl]triazolo [4,5-d]pyrimidin-7-yl]pyrrolidin-3-yl]acetamide], the EC50 in experiment [1] is more than 10000 nM; in experiment [2] it was 72.7 nM.
On to `C[C@H](Oc1nc(N2CCC(F)(F)C2)c2nnn(Cc3ncccc3Cl)c2n1)C(F)(F)F` [Example 70, 3-[(3-Chloropyridin-2-yl)methyl]-7-(3,3-difluoropyrrolidin-1-yl)-5-[(2S)-1,1,1-trifluoropropan-2-yl]oxytriazolo[4,5-d]pyrimidine], for which the results for the EC50 in experiment [1] and in experiment [2] were more than 10000 nM and 5.1 nM, respectively.
Taken in the same sequence, the figures for `C#CCOc1nc(N2CCC(F)(F)C2)c2nnn(Cc3ccccc3Cl)c2n1` [Example 56, 3-[(2-Chlorophenyl)methyl]-7-(3,3-difluoropyrrolidin-1-yl)-5-prop-2-ynoxytriazolo [4,5-d]pyrimidine] were more than 10000 nM and 11 nM.
Consider `COc1ccc(Cn2nnc3c(N4CCC(F)(F)C4)nc(C4CC4)nc32)cc1` [Example 2, 5-Cyclopropyl-7-(3,3-difluoropyrrolidin-1-yl)-3-[(4-methoxyphenyl)methyl]triazolo [4,5-d]pyrimidine], for which the EC50 in experiment [1] is more than 10000 nM; in experiment [2] it was 6.4 nM.
Take `C[C@@]1(O)CCN(c2nc(N3CCOCC3)nc3c2nnn3Cc2ccccc2C(F)(F)F)C1` [Example 37, (3R)-3-Methyl-1-[5-morpholin-4-yl-3-[[2-(trifluoromethyl)phenyl]methyl]triazolo[4,5-d]pyrimidin-7-yl]pyrrolidin-3-ol]: the half-maximal effective concentration (EC50) in experiment [1] was more than 10000 nM; in experiment [2] it was 23.6 nM.
Taken in the same sequence, the figures for `CCNc1nc(N2CCC(F)(F)C2)c2nnn(Cc3ccccc3Cl)c2n1` [Example 8, 3-[(2-Chlorophenyl)methyl]-7-(3,3-difluoropyrrolidin-1-yl)-N-ethyltriazolo[4,5-d]pyrimidin-5-amine] were more than 10000 nM and 4.5 nM.
For `Clc1ccccc1Cn1nnc2c(N3CCCCC3)nc(N3CCCCC3)nc21` [Example 7, 3-[(2-Chlorophenyl)methyl]-5,7-di(piperidin-1-yl)triazolo[4,5-d]pyrimidine], in that order: more than 10000 nM and 9.2 nM.
For `COCC(C)Oc1nc(N2CCC(F)(F)C2)c2nnn(Cc3ccccc3Cl)c2n1` (stereo not drawn) [Example 57, 3-[(2-Chlorophenyl)methyl]-7-(3,3-difluoropyrrolidin-1-yl)-5-(1-methoxypropan-2-yloxy)triazolo[4,5-d]pyrimidine], in that order: more than 10000 nM and 8.8 nM.
For the compound `Cc1noc(Cn2nnc3c(N4CC[C@](C)(O)C4)nc(N4CCOCC4)nc32)n1` [Example 35, (3S)-3-Methyl-1-[3-[(3-methyl-1,2,4-oxadiazol-5-yl)methyl]-5-morpholin-4-yltriazolo[4,5-d]pyrimidin-7-yl]pyrrolidin-3-ol], the figures for the EC50 in experiment [1] and in experiment [2] were more than 10000 nM and 10.8 nM, respectively.
Turning to `C[C@H](Oc1nc(N2CCC(F)(F)C2)c2nnn(Cc3ccccc3Cl)c2n1)C(F)(F)F` [Example 42, 3-[(2-Chlorophenyl)methyl]-7-(3,3-difluoropyrrolidin-1-yl)-5-[(2S)-1,1,1-trifluoropropan-2-yl]oxytriazolo[4,5-d]pyrimidine], the results for the EC50 in experiment [1] and in experiment [2] were more than 10000 nM and 3.3 nM, respectively.
As for `C[C@@]1(O)CCN(c2nc(N3CCOCC3)nc3c2nnn3Cc2ccccc2S(C)(=O)=O)C1` [Example 38, (3R)-3-Methyl-1-[3-[(2-methylsulfonylphenyl)methyl]-5-morpholin-4-yltriazolo[4,5-d]pyrimidin-7-yl]pyrrolidin-3-ol], the EC50 was more than 10000 nM in experiment [1] and 312 nM in experiment [2].
Turning to `COCCS(=O)(=O)c1nc(N2CCC(F)(F)C2)c2nnn(Cc3ccccc3Cl)c2n1` [Example 96, 3-[(2-Chlorophenyl)methyl]-7-(3,3-difluoropyrrolidin-1-yl)-5-(2-methoxyethylsulfonyl)triazolo[4,5-d]pyrimidine], the results for the EC50 in experiment [1] and in experiment [2] were more than 10000 nM and 5.1 nM, respectively.
For the compound `CC(=O)N[C@H]1CCN(c2nc(NC(C)(C)C)nc3c2nnn3Cc2ccccc2Cl)C1` [Example 97, N-[(3S)-1-[5-(tert-butylamino)-3-[(2-chlorophenyl)methyl]triazolo[4,5-d]pyrimidin-7-yl]pyrrolidin-3-yl]acetamide], the EC50 in experiment [1] is more than 10000 nM; in experiment [2], 38 nM.
Taken in the same sequence, the figures for `CC(=O)N[C@H]1CCN(c2nc(OCC(C)(C)C)nc3c2nnn3Cc2ccccc2Cl)C1` [Example 77, N-[(3S)-1-[3-[(2-Chlorophenyl)methyl]-5-(2,2-dimethylpropoxy)triazolo[4,5-d]pyrimidin-7-yl]pyrrolidin-3-yl]acetamide] were more than 10000 nM and 58.2 nM.
Regarding `CC(C)(C)CNc1nc(N2CCC(F)(F)C2)c2nnn(Cc3ccccc3Cl)c2n1` [Example 16, 3-[(2-Chlorophenyl)methyl]-7-(3,3-difluoropyrrolidin-1-yl)-N-(2,2-dimethylpropyl) triazolo[4,5-d]pyrimidin-5-amine], the EC50 was more than 10000 nM in experiment [1] and 3.1 nM in experiment [2].
As for `FC(F)(F)COc1nc(N2CCC(F)(F)C2)c2nnn(Cc3ccccc3Cl)c2n1` [Example 40, 3-[(2-Chlorophenyl)methyl]-7-(3,3-difluoropyrrolidin-1-yl)-5-(2,2,2-trifluoroethoxy) triazolo[4,5-d]pyrimidine], the results for the EC50 in experiment [1] and in experiment [2] were more than 10000 nM and 6.1 nM, respectively.
Taken in the same sequence, the figures for `CC(C)Oc1nc(N2CC[C@H](O)C2)c2nnn(Cc3ccccc3S(C)(=O)=O)c2n1` [Example 63, (3S)-1-[3-[(2-Methylsulfonylphenyl)methyl]-5-propan-2-yloxytriazolo[4,5-d]pyrimidin-7-yl]pyrrolidin-3-ol] were more than 10000 nM and 190 nM.
With `CC(=O)N[C@H]1CCN(c2nc(OCC(C)(C)C)nc3c2nnn3Cc2ncccc2Cl)C1` [Example 78, N-[(3S)-1-[3-[(3-Chloropyridin-2-yl)methyl]-5-(2,2-dimethylpropoxy)triazolo[4,5-d]pyrimidin-7-yl]pyrrolidin-3-yl]acetamide], the figures for the EC50 in experiment [1] and in experiment [2] were more than 10000 nM and 168 nM, respectively.
As for `COc1ccc(Cn2nnc3c(N4CC[C@H](O)C4)nc(NC(C)(C)C)nc32)cc1` [Example 19, (3S)-1-[5-(tert-Butylamino)-3-[(4-methoxyphenyl)methyl]triazolo[4,5-d]pyrimidin-7-yl]pyrrolidin-3-ol], the EC50 was more than 10000 nM in experiment [1] and 27.4 nM in experiment [2].
With `Cc1noc(Cn2nnc3c(N4CC[C@@](C)(O)C4)nc(N4CCOCC4)nc32)n1` [Example 39, (3R)-3-Methyl-1-[3-[(3-methyl-1,2,4-oxadiazol-5-yl)methyl]-5-morpholin-4-yltriazolo[4,5-d]pyrimidin-7-yl]pyrrolidin-3-ol], the EC50 in experiment [1] is more than 10000 nM; in experiment [2] it was 301 nM.
Consider `C[C@]1(O)CCN(c2nc(N3CCOCC3)nc3c2nnn3Cc2ncccc2Cl)C1` [Example 34, (3S)-1-[3-[(3-chloropyridin-2-yl)methyl]-5-morpholin-4-yltriazolo[4,5-d]pyrimidin-7-yl]-3-methylpyrrolidin-3-ol], for which the values for the EC50 in experiment [1] and in experiment [2] were more than 10000 nM and 45.3 nM, respectively.
